pEC50: −log10 of the molar value.
How the values were obtained:
[1] = system: HBV; experiment: anti HBV activity, HepG2.117 cell line, intracellular HBV DNA by realtime PCR; assay type: cell-based; settings: HepG2.117 cell line (Tet-off), 3 days of treatment, intracellular HBV DNA quantified by realtime PCR; read-out: HBV-AVE-HepG2.117 EC50
Method in brief: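 Readout was intracellular HBV DNA by real-time PCR (HBV-specific primers and probe) after 3 days of compound exposure. Serial dilutions were tested in duplicate on HepG2.117 cells, a stable inducible HBV producer in which replication is switched on when doxycycline is absent.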

[2] = system: HepG2 cells; experiment: Cytotoxicity in HepG2 cells, Resazurin assay; settings: read-out: TOX-HepG2-4 d CC50; HepG2 cells incubated for 4 days, viability by Resazurin assay

CC(NCC(F)(F)F)C1COc2c(cn(C)c2C(=O)Nc2ccc(F)c(C#N)c2)S(=O)(=O)N1 (single isomer, unassigned) [Compound 161d, N-(3-cyano-4-fluoro-phenyl)-7-methyl-1,1-dioxo-3-[1-(2,2,2-trifluoroethylamino)ethyl]-3,4-dihydro-2H-pyrrolo[3,4-b][1,4,5]oxathiazepine-6-carboxamide]
pEC50 [1]: 7.96
CC50 [2]: > 25000 nM

Cn1cc2c(c1C(=O)Nc1ccc(F)c(C(F)F)c1)CCC(C(C)(C)O)NS2(=O)=O (single isomer, unassigned) [Compound 150b, N-[3-(difluoromethyl)-4-fluoro-phenyl]-3-(1-hydroxy-1-methyl-ethyl)-7-methyl-1,1-dioxo-2,3,4,5-tetrahydropyrrolo[3,4-f]thiazepine-6-carboxamide]
pEC50 [1]: 8.30
CC50 [2]: > 25000 nM

Cn1cc2c(c1C(=O)Nc1ccc(F)c(C#N)c1)OCC(C)(CO)NS2(=O)=O (single isomer, unassigned) [Compound 210b, N-(3-cyano-4-fluoro-phenyl)-3-(hydroxymethyl)-3,7-dimethyl-1,1-dioxo-2,4-dihydropyrrolo[3,4-b][1,4,5]oxathiazepine-6-carboxamide]
pEC50 [1]: 7.47
CC50 [2]: > 25000 nM

Cn1ccc(CC2(C)COc3c(cn(C)c3C(=O)Nc3ccnc(C(F)F)c3)S(=O)(=O)N2)n1 (single isomer, unassigned) [Compound 217b, N-[2-(difluoromethyl)-4-pyridyl]-3,7-dimethyl-3-[(1-methylpyrazol-3-yl)methyl]-1,1-dioxo-2,4-dihydropyrrolo[3,4-b][1,4,5]oxathiazepine-6-carboxamide]
pEC50 [1]: 7.00
CC50 [2]: > 25000 nM

Cc1cc(CC2(C)COc3c(cn(C)c3C(=O)Nc3ccc(F)c(F)c3)S(=O)(=O)N2)n(C)n1 (single isomer, unassigned) [Compound 175b, N-(3,4-difluorophenyl)-3-[(2,5-dimethylpyrazol-3-yl)methyl]-3,7-dimethyl-1,1-dioxo-2,4-dihydropyrrolo[3,4-b][1,4,5]oxathiazepine-6-carboxamide]
pEC50 [1]: 8.52
CC50 [2]: > 25000 nM

CCC(O)[C@H]1COc2c(cn(C)c2C(=O)Nc2ccc(F)c(F)c2)S(=O)(=O)N1 (stereo partly drawn) [Compound 130b, (3R)—N-(3,4-difluorophenyl)-3-(1-hydroxypropyl)-7-methyl-1,1-dioxo-3,4-dihydro-2H-pyrrolo[3,4-b][1,4,5]oxathiazepine-6-carboxamide]
pEC50 [1]: 7.92
CC50 [2]: > 25000 nM

Cn1cc2c(c1C(=O)Nc1ccnc(Cl)c1)OCC(C)(CO)NS2(=O)=O (single isomer, unassigned) [Compound 204b, N-(2-chloro-4-pyridyl)-3-(hydroxymethyl)-3,7-dimethyl-1,1-dioxo-2,4-dihydropyrrolo[3,4-b][1,4,5]oxathiazepine-6-carboxamide]
pEC50 [1]: < 6.90
CC50 [2]: > 25000 nM

Cn1cc2c(c1C(=O)Nc1ccc(F)c(F)c1)OCC(C)(c1ncccn1)NS2(=O)=O (single isomer, unassigned) [Compound 153b, N-(3,4-difluorophenyl)-3,7-dimethyl-1,1-dioxo-3-pyrimidin-2-yl-2,4-dihydropyrrolo[3,4-b][1,4,5]oxathiazepine-6-carboxamide]
pEC50 [1]: 7.22
CC50 [2]: > 25000 nM

CC(NCC(F)(F)F)C1COc2c(cn(C)c2C(=O)Nc2ccc(F)c(C#N)c2)S(=O)(=O)N1 (single isomer, unassigned) [Compound 161c, N-(3-cyano-4-fluoro-phenyl)-7-methyl-1,1-dioxo-3-[1-(2,2,2-trifluoroethylamino)ethyl]-3,4-dihydro-2H-pyrrolo[3,4-b][1,4,5]oxathiazepine-6-carboxamide]
pEC50 [1]: 7.96
CC50 [2]: > 25000 nM

CC(NCC(F)(F)F)C1CCc2c(cn(C)c2C(=O)Nc2cc(F)c(F)c(F)c2)S(=O)(=O)N1 (single isomer, unassigned) [Compound 218d, 7-methyl-1,1-dioxo-3-[1-(2,2,2-trifluoroethylamino)ethyl]-N-(3,4,5-trifluorophenyl)-2,3,4,5-tetrahydropyrrolo[3,4-f]thiazepine-6-carboxamide]
pEC50 [1]: 7.68
CC50 [2]: > 25000 nM

CCC1(C)COc2c(cn(C)c2C(=O)Nc2ccc(F)c(F)c2)S(=O)(=O)N1 (single isomer, unassigned) [Compound 134b, N-(3,4-difluorophenyl)-3-ethyl-3,7-dimethyl-1,1-dioxo-2,4-dihydropyrrolo[3,4-b][1,4,5]oxathiazepine-6-carboxamide]
pEC50 [1]: 8.15
CC50 [2]: > 25000 nM

Cn1ccc(C2(C)COc3c(cn(C)c3C(=O)Nc3ccc(F)c(F)c3)S(=O)(=O)N2)n1 (single isomer, unassigned) [Compound 192b, N-(3,4-difluorophenyl)-3,7-dimethyl-3-(1-methylpyrazol-3-yl)-1,1-dioxo-2,4-dihydropyrrolo[3,4-b][1,4,5]oxathiazepine-6-carboxamide]
pEC50 [1]: 7.62
CC50 [2]: > 25000 nM

Cn1cc2c(c1C(=O)Nc1ccc(F)c(F)c1)OC[C@@H](C(O)C1CC1)NS2(=O)=O (single isomer, unassigned) [Compound 92b]
pEC50 [1]: 6.77
CC50 [2]: > 25000 nM

Cn1cc2c(c1C(=O)Nc1ccnc(C(F)(F)F)c1)CCC(C(F)(F)F)NS2(=O)=O (single isomer, unassigned) [Compound 59b, 7-methyl-1,1-dioxo-3-(trifluoromethyl)-N-[2-(trifluoromethyl)-4-pyridyl]-2,3,4,5-tetrahydropyrrolo[3,4-f]thiazepine-6-carboxamide]
pEC50 [1]: 6.85
CC50 [2]: > 25000 nM

Cn1cc2c(c1C(=O)Nc1ccc(F)c(Cl)c1)OC[C@H](C(O)C1CC1)NS2(=O)=O (single isomer, unassigned) [Compound 207b, N-(3-chloro-4-fluoro-phenyl)-3-[cyclopropyl(hydroxy)methyl]-7-methyl-1,1-dioxo-3,4-dihydro-2H-pyrrolo[3,4-b][1,4,5]oxathiazepine-6-carboxamide]
pEC50 [1]: 8.30
CC50 [2]: > 25000 nM

C[C@@H]1NS(=O)(=O)c2cn(C)c(C(=O)Nc3ccc(F)c(F)c3)c2O[C@@H]1C [compound 228]
pEC50 [1]: < 6.30
CC50 [2]: > 25000 nM

CC1CCc2c(cn(C)c2C(=O)Nc2ccc(F)c(F)c2)S(=O)(=O)N1 (single isomer, unassigned) [Compound 10b, N-(3,4-difluorophenyl)-3,7-dimethyl-1,1-dioxo-2,3,4,5-tetrahydropyrrolo[3,4-f]thiazepine-6-carboxamide]
pEC50 [1]: 8.22
CC50 [2]: > 25000 nM

Cn1cc2c(c1C(=O)Nc1ccc(F)c(C(F)F)c1)OC[C@H](C(O)C1CC1)NS2(=O)=O (stereo partly drawn) [Compound 115b, (3R)-3-[cyclopropyl(hydroxy)methyl]-N-[3-(difluoromethyl)-4-fluoro-phenyl]-7-methyl-1,1-dioxo-3,4-dihydro-2H-pyrrolo[3,4-b][1,4,5]oxathiazepine-6-carboxamide]
pEC50 [1]: 8.15
CC50 [2]: > 25000 nM

C[C@@H]1Oc2c(cn(C)c2C(=O)Nc2ccnc(Br)c2)S(=O)(=O)N[C@@H]1CO [compound 236]
pEC50 [1]: 6.47
CC50 [2]: > 25000 nM

CC(C)C(O)C1COc2c(cn(C)c2C(=O)Nc2ccc(F)c(F)c2)S(=O)(=O)N1 (single isomer, unassigned) [Compound 114b, N-(3,4-difluorophenyl)-3-(1-hydroxy-2-methyl-propyl)-7-methyl-1,1-dioxo-3,4-dihydro-2H-pyrrolo[3,4-b][1,4,5]oxathiazepine-6-carboxamide]
pEC50 [1]: 8.10
CC50 [2]: > 25000 nM

Reference: patent publication US10875876B2, “Cyclized sulfamoylarylamide derivatives and the use thereof as medicaments for the treatment of hepatitis B” (priority 2015, dated 2020)
